Results reported in ChEMBL document CHEMBL3991601, “The target landscape of clinical kinase drugs” (Science, 2017).
Active and inactive are the calls of the source. Cut-off read from the data, not from the text of the source, for most assays here: actives have a measured Kd and inactives only a lower limit.

What was measured:
[1] = molecular target: T1, Interleukin-1 receptor-associated kinase 3 (Homo sapiens, UniProt Q9Y616)
T1 sequence (Q9Y616 whole entry): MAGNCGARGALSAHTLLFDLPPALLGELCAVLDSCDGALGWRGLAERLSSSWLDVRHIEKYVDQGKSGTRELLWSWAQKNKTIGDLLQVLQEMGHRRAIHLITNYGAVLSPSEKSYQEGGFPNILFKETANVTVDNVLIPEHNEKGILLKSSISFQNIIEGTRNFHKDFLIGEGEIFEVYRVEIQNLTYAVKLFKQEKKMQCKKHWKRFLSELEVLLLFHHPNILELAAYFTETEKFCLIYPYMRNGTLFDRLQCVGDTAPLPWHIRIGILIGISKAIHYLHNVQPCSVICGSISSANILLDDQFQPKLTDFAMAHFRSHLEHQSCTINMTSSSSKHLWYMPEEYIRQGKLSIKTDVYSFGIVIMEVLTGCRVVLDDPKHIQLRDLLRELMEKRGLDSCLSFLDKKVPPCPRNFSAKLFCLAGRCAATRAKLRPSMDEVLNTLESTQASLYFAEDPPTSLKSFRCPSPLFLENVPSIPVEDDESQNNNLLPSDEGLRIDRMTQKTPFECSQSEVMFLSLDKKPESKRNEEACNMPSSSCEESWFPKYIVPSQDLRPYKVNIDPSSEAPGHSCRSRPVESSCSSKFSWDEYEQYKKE

[2] = molecular target: RAC-alpha serine/threonine-protein kinase (Homo sapiens, UniProt P31749)
[3] = molecular target: Tyrosine-protein kinase Lck (Homo sapiens, UniProt P06239)
[4] = molecular target: Hepatocyte growth factor receptor (Homo sapiens, UniProt P08581)
[5] = molecular target: T2, ATP-dependent RNA helicase DDX1 (Homo sapiens, UniProt Q92499)
T2 sequence (Q92499 whole entry): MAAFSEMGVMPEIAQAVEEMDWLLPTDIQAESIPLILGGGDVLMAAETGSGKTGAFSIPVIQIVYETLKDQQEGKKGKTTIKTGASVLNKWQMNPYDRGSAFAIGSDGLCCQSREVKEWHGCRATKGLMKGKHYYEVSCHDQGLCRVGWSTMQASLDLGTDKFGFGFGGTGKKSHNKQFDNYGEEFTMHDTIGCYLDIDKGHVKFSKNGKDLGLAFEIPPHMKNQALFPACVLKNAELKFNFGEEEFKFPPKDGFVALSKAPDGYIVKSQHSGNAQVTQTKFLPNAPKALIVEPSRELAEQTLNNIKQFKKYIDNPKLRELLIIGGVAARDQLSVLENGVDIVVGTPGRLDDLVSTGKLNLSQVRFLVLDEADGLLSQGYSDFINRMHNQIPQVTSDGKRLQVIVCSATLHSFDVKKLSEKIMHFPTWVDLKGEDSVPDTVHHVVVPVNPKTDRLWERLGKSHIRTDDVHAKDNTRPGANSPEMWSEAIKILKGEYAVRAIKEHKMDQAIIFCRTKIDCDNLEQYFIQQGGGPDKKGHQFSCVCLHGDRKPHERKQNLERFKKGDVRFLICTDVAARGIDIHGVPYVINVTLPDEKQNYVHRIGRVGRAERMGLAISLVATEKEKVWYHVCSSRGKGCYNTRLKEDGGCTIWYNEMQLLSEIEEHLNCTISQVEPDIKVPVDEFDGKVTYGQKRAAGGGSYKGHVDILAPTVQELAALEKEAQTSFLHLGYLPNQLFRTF

[6] = molecular target: Cyclin-dependent kinase 13 (Homo sapiens, UniProt Q14004)
[7] = molecular target: Bone morphogenetic protein receptor type-1A (Homo sapiens, UniProt P36894)
[8] = molecular target: Cyclin-dependent kinase 6 (Homo sapiens, UniProt Q00534)
[9] = molecular target: Membrane-associated progesterone receptor component 1 (Homo sapiens, UniProt O00264)
[10] = molecular target: MAP kinase-activated protein kinase 2 (Homo sapiens, UniProt P49137)
[11] = molecular target: T3, Mitogen-activated protein kinase kinase kinase kinase 2 (Homo sapiens, UniProt Q12851)
T3 sequence (Q12851 whole entry): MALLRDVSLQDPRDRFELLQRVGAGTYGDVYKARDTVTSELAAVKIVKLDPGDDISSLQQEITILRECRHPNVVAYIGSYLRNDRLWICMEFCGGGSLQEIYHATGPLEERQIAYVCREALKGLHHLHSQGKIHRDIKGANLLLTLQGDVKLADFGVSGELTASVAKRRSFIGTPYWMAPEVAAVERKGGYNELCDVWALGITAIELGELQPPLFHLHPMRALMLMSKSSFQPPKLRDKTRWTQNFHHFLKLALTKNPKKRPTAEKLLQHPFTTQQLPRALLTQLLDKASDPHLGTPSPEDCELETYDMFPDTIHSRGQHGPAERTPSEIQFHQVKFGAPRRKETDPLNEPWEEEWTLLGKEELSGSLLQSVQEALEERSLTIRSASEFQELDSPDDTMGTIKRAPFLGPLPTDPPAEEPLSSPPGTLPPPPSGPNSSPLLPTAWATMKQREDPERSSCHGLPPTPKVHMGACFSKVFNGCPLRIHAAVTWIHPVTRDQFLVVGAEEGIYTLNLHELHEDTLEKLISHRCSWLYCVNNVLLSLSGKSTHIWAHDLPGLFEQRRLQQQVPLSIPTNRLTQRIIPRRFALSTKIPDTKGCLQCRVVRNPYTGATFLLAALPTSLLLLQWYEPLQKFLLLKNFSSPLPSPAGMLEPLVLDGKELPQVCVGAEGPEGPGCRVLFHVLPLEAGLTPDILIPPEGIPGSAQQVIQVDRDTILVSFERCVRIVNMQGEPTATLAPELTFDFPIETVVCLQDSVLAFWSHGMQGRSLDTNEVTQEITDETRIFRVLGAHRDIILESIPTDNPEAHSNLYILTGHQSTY
Note: in the data inactive means no Kd found up to 30 µM.

Bone morphogenetic protein receptor type-1A, sequence (P36894 whole entry): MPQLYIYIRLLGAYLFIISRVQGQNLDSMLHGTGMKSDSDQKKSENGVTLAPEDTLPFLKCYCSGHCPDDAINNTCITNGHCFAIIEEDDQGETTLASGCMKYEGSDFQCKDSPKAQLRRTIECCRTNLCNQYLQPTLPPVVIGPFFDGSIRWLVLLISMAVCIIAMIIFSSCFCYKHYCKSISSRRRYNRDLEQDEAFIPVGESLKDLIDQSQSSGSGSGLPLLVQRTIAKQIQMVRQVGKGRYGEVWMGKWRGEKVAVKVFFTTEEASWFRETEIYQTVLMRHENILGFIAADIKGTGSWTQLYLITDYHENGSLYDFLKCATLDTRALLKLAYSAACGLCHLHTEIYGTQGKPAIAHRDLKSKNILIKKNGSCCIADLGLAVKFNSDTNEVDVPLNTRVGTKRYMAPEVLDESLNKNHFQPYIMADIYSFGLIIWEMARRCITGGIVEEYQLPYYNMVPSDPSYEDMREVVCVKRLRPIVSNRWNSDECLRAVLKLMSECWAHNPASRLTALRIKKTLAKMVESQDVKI
MAP kinase-activated protein kinase 2, sequence (P49137 whole entry): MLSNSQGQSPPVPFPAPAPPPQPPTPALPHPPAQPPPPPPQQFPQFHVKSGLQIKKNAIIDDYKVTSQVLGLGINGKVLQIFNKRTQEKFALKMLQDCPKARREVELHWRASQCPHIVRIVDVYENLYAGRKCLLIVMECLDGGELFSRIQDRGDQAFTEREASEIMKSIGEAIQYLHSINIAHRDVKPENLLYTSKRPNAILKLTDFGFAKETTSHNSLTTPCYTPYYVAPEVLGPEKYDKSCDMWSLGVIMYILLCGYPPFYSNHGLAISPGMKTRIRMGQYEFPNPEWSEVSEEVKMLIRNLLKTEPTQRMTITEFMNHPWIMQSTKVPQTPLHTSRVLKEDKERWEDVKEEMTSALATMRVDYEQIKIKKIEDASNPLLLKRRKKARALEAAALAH
Tyrosine-protein kinase Lck, sequence (P06239 whole entry): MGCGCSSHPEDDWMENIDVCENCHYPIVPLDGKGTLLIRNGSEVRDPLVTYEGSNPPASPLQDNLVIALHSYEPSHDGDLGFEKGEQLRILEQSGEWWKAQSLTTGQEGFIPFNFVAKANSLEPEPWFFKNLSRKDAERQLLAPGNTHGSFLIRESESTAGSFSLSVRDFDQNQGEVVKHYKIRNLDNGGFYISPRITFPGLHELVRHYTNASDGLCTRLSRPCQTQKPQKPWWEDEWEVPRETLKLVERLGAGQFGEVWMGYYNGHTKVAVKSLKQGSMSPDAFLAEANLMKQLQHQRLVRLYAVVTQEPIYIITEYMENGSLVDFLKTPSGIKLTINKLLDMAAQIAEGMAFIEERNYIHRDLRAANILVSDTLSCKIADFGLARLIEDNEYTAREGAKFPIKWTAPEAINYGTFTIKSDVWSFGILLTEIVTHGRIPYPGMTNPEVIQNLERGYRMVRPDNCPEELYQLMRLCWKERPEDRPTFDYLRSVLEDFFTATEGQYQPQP
RAC-alpha serine/threonine-protein kinase, sequence (P31749 whole entry): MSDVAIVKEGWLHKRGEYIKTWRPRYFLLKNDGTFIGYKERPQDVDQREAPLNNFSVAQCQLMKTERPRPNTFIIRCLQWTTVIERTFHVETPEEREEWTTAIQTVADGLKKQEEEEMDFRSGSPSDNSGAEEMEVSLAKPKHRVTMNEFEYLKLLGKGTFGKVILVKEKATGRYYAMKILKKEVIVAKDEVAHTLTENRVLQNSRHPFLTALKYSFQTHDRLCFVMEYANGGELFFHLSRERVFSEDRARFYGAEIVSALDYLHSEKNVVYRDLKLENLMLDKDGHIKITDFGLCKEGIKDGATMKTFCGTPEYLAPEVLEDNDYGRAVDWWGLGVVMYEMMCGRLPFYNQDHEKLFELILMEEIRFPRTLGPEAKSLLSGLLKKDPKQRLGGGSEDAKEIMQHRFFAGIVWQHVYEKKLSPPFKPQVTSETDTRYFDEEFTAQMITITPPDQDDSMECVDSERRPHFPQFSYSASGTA
Cyclin-dependent kinase 13, sequence (Q14004 whole entry): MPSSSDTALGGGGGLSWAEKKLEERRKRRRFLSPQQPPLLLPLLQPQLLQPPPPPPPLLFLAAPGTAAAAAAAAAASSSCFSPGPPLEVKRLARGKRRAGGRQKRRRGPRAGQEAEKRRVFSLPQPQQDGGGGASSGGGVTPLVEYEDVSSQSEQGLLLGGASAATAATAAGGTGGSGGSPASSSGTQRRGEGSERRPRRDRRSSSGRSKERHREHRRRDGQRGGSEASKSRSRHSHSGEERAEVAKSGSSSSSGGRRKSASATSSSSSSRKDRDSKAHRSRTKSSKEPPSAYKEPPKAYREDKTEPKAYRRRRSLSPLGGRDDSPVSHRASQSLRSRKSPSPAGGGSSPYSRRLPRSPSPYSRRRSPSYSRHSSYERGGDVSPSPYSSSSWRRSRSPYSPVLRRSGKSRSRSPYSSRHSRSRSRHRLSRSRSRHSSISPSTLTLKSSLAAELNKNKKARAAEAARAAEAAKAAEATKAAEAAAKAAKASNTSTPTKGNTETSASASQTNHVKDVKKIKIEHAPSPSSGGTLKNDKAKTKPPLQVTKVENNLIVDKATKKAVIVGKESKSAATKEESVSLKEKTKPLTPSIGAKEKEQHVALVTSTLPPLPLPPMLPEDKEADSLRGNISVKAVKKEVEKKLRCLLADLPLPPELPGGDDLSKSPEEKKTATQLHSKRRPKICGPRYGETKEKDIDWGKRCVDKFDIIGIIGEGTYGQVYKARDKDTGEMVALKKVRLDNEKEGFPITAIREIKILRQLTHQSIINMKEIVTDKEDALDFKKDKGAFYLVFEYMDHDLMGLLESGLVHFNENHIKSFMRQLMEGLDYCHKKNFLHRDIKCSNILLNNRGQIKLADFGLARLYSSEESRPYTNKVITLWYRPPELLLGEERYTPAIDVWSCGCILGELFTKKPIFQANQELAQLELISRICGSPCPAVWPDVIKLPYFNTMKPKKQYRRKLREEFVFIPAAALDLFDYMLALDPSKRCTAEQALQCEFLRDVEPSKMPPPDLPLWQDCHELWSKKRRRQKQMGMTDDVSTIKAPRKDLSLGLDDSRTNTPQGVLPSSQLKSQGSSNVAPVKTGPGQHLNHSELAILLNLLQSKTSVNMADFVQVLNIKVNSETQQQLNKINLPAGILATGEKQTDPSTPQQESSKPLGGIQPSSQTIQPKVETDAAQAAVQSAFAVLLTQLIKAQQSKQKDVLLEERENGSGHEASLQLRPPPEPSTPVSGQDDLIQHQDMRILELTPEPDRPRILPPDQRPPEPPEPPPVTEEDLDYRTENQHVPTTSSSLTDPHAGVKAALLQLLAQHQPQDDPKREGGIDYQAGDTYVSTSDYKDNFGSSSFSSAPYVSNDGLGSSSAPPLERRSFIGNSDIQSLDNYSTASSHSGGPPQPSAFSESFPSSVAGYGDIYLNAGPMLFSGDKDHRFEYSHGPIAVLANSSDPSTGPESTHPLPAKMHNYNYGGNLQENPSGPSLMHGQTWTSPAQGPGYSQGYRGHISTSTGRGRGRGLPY
Cyclin-dependent kinase 6, sequence (Q00534 whole entry): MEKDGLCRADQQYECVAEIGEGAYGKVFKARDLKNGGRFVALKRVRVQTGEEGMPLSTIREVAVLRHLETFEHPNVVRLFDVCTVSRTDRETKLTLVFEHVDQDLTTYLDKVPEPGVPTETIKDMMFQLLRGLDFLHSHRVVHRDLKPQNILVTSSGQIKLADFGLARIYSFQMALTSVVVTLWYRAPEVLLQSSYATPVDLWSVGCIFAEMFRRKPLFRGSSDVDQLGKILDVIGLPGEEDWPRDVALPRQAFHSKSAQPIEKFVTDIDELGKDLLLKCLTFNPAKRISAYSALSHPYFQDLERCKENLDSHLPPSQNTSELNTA
Membrane-associated progesterone receptor component 1, sequence (O00264 whole entry): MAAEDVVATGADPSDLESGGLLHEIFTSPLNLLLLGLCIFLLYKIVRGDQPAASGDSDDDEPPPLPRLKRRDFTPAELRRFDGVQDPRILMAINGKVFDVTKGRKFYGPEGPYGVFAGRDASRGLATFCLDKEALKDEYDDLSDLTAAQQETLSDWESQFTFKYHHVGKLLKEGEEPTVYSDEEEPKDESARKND

Row | SMILES | Kd [1] | Kd [2] | Kd [3] | Kd [4] | Kd [5] | Kd [6] | Kd [7] | Kd [8] | Kd [9] | Kd [10] | Kd [11]
1 | CC(=O)c1cnc2ccc(-c3cc(Cl)c(O)c(Cl)c3)nc2c1N[C@H]1CC[C@H](CN(C)C)CC1 | 0.012 µM (active) | > 30 µM (inactive) | 0.073 µM (active) | > 30 µM (inactive) | > 30 µM (inactive) | > 30 µM (inactive) | > 30 µM (inactive) | > 30 µM (inactive) |  |  | 
2 | COc1cc(Nc2ncc3c(n2)-c2ccc(Cl)cc2C(c2c(F)cccc2OC)=NC3)ccc1C(=O)O [ALISERTIB] | > 30 µM (inactive) |  | > 30 µM (inactive) |  | > 30 µM (inactive) | > 30 µM (inactive) | > 30 µM (inactive) | > 30 µM (inactive) | > 30 µM (inactive) |  | 
3 | O=C(Nc1c[nH]nc1-c1nc2cc(CN3CCOCC3)ccc2[nH]1)NC1CC1 [AT-9283] | > 30 µM (inactive) | > 30 µM (inactive) | 0.89 µM (active) |  | > 30 µM (inactive) |  | 0.388 µM (active) |  | > 30 µM (inactive) | > 30 µM (inactive) | > 30 µM (inactive)
4 | CNC(=O)c1ccccc1Sc1ccc2c(/C=C/c3ccccn3)n[nH]c2c1 [AXITINIB] |  |  |  |  | > 30 µM (inactive) |  |  | > 30 µM (inactive) |  |  | 
5 | Cc1cc(C(=O)NOCCO)c(Nc2ccc(I)cc2F)n(C)c1=O [AZD-8330] | > 30 µM (inactive) | > 30 µM (inactive) | > 30 µM (inactive) |  | > 30 µM (inactive) | > 30 µM (inactive) | > 30 µM (inactive) | > 30 µM (inactive) | > 30 µM (inactive) | > 30 µM (inactive) | > 30 µM (inactive)
6 | CC(C)(C)c1nc(-c2cccc(NS(=O)(=O)c3c(F)cccc3F)c2F)c(-c2ccnc(N)n2)s1 [DABRAFENIB] | > 30 µM (inactive) |  | 0.783 µM (active) |  | > 30 µM (inactive) | > 30 µM (inactive) | > 30 µM (inactive) | 0.318 µM (active) | > 30 µM (inactive) |  | > 30 µM (inactive)
7 | Cn1cc(C2=C(c3cn(C4CCN(Cc5ccccn5)CC4)c4ccccc34)C(=O)NC2=O)c2ccccc21 [ENZASTAURIN] |  |  |  |  | > 30 µM (inactive) |  |  | > 30 µM (inactive) |  |  | 
8 | C[C@@H](Oc1cc(-n2cnc3ccc(CN4CCN(C)CC4)cc32)sc1C(N)=O)c1ccccc1C(F)(F)F [GSK-461364] |  |  |  |  | > 30 µM (inactive) |  |  | > 30 µM (inactive) | > 30 µM (inactive) |  | 
9 | CNC(=O)c1nn(C)c2c1C(C)(C)Cc1cnc(Nc3ccc(N4CCN(C)CC4)cc3)nc1-2 [MILCICLIB] | 0.291 µM (active) | > 30 µM (inactive) |  |  |  | > 30 µM (inactive) | > 30 µM (inactive) | 1.72 µM (active) | > 30 µM (inactive) | > 30 µM (inactive) | 14 µM (active)
10 | Cn1cc(-c2cnc3ccc4ccc(CS(=O)(=O)NCc5ccccn5)cc4c(=O)c3c2)cn1 [MK-8033] | > 30 µM (inactive) | > 30 µM (inactive) | > 30 µM (inactive) |  | > 30 µM (inactive) | > 30 µM (inactive) | > 30 µM (inactive) | > 30 µM (inactive) | > 30 µM (inactive) | > 30 µM (inactive) | > 30 µM (inactive)
11 | COc1ncc(-c2ccc3nccc(-c4ccnnc4)c3c2)cc1NS(=O)(=O)c1ccc(F)cc1F [OMIPALISIB] | 3.03 µM (active) | > 30 µM (inactive) | > 30 µM (inactive) |  | > 30 µM (inactive) | > 30 µM (inactive) | > 30 µM (inactive) | > 30 µM (inactive) | > 30 µM (inactive) | > 30 µM (inactive) | > 30 µM (inactive)
12 | Cc1[nH]c(/C=C2\C(=O)Nc3ccccc32)c(C)c1CCC(=O)O [ORANTINIB] | > 30 µM (inactive) |  |  |  | > 30 µM (inactive) | > 30 µM (inactive) | > 30 µM (inactive) | > 30 µM (inactive) | > 30 µM (inactive) |  | 
13 | NC(=O)c1c(OCc2c(F)cc(Br)cc2F)nsc1NC(=O)NCCCCN1CCCC1 [OSI-632] | > 30 µM (inactive) |  |  |  |  |  |  | > 30 µM (inactive) | > 30 µM (inactive) |  | 
14 | CCOc1cc2ncc(C#N)c(Nc3ccc(F)c(Cl)c3)c2cc1NC(=O)/C=C/CN(C)C [PELITINIB] | > 30 µM (inactive) | > 30 µM (inactive) |  |  | > 30 µM (inactive) | > 30 µM (inactive) | > 30 µM (inactive) | > 30 µM (inactive) | > 30 µM (inactive) | > 30 µM (inactive) | 2.28 µM (active)
15 | CCCCCCCCCCCCCCCCCCOP(=O)([O-])OC1CC[N+](C)(C)CC1 [PERIFOSINE] | > 30 µM (inactive) | > 30 µM (inactive) | > 30 µM (inactive) |  | > 30 µM (inactive) | > 30 µM (inactive) | > 30 µM (inactive) | > 30 µM (inactive) | > 30 µM (inactive) | > 30 µM (inactive) | > 30 µM (inactive)
16 | CC(=O)NCC(=O)N1[C@@H]2CC[C@H]1c1ccc(Nc3ncc(C(F)(F)F)c(NC4CCC4)n3)cc12 [PF-03814735] | > 30 µM (inactive) |  |  |  | > 30 µM (inactive) | > 30 µM (inactive) | > 30 µM (inactive) | 2.08 µM (active) | > 30 µM (inactive) |  | 
17 | CNC(=O)c1cc(Oc2ccc(NC(=O)Nc3cc(C(C)(C)C)nn3-c3ccc4ncccc4c3)c(F)c2)ccn1 [REBASTINIB] | > 30 µM (inactive) | > 30 µM (inactive) |  | 0.126 µM (active) | > 30 µM (inactive) | > 30 µM (inactive) | > 30 µM (inactive) | > 30 µM (inactive) |  | 4.69 µM (active) | 1.06 µM (active)
18 | O=C(NOCCO)c1cc(CN2OCCCC2=O)c(F)c(F)c1Nc1ccc(I)cc1F [RO-4987655] |  |  |  |  | > 30 µM (inactive) |  |  | > 30 µM (inactive) | > 30 µM (inactive) |  | 
19 | N#CC[C@H](C1CCCC1)n1cc(-c2ncnc3[nH]ccc23)cn1 [RUXOLITINIB] |  |  |  |  | > 30 µM (inactive) |  |  | > 30 µM (inactive) |  |  | 
20 | CN1CCN(CCOc2cc(OC3CCOCC3)c3c(Nc4c(Cl)ccc5c4OCO5)ncnc3c2)CC1 [SARACATINIB] | > 30 µM (inactive) | > 30 µM (inactive) |  | > 30 µM (inactive) | > 30 µM (inactive) | > 30 µM (inactive) | 0.06 µM (active) | > 30 µM (inactive) |  | > 30 µM (inactive) | > 30 µM (inactive)
